Laboratory results reported in paper PMC7754187 (ACS Chemical Biology, 2020).
Non-standard residues stand in square brackets, D forms with d. Residues, ends and D or L forms follow the SMILES beside them. pS = N[C@@H](COP(=O)(O)O)C(=O)O

Test system: seven human 14-3-3 isoforms
Experiment: FA of ERRγ phosphopeptides with the seven 14-3-3 isoforms
Format: binding
Settings: 14-3-3γ compared with other isoforms; Figure 2b, Figure S1

CC(=O)N[C@@H](CCCCN)C(=O)N[C@@H](CCCNC(=N)N)C(=O)N[C@@H](CCCNC(=N)N)C(=O)N[C@@H](CCCNC(=N)N)C(=O)N[C@@H](CCCCN)C(=O)N[C@@H](COP(=O)(O)O)C(=O)N[C@@H](CS)C(=O)N[C@@H](CCC(N)=O)C(=O)N[C@@H](C)C(N)=O [DBD] (Ac-KRRRK[pS]CQA-NH2)
Relative affinity among 14-3-3 isoforms (in words): highest affinity
